Format in all cases: in vivo
The test system of test [1] is Alopecurus myosuroides (ALOMY). The test can be described thus: Pre-emergence herbicidal activity (B1). The note with it: Test 1b; pre-emergence application; rate 1000 g/ha; evaluated after 13 days; score 0-5. The procedure: (§1) Seeds of a variety of test species were sown in standard soil in pots: Triticum aestivium (TRZAW), Avena fatua (AVEFA), Alopecurus myosuroides (ALOMY), Echinochloa crus-galli (ECHCG), Lolium perenne (LOLPE), Zea Mays (ZEAMX), Abutilon theophrasti (ABUTH), Amaranthus retroflexus (AMARE) and Setaria faberi (SETFA). […] The test plants were then grown in a glasshouse under controlled conditions (at 24/16° C., day/night; 14 hours light; 65% humidity) and watered twice daily. After 13 days, the test was evaluated (5=total damage to plant; 0=no damage to plant).

In test [2] the test system is Avena fatua (AVEFA). Briefly: Pre-emergence herbicidal activity (B1). The note with it: Test 1b; pre-emergence application; rate 1000 g/ha; evaluated after 13 days; score 0-5. The method, then: as §1
Test [3] has as its system Echinochloa crus-galli (ECHCG). The test can be described thus: Pre-emergence herbicidal activity (B1). The note with it: Test 1b; pre-emergence application; rate 1000 g/ha; evaluated after 13 days; score 0-5. The procedure: as §1
Test [4] has as its system Lolium perenne (LOLPE). The test can be described thus: Pre-emergence herbicidal activity (B1). The settings on record: Test 1b; pre-emergence application; rate 1000 g/ha; evaluated after 13 days; score 0-5. The method, then: as §1
In test [5] the test system is Setaria faberi (SETFA). The test can be described thus: Pre-emergence herbicidal activity (B1). The note with it: Test 1b; pre-emergence application; rate 1000 g/ha; evaluated after 13 days; score 0-5. The procedure:
as §1

Test [6] has as its system Triticum aestivium (TRZAW). Briefly: Pre-emergence herbicidal activity (B1). The note with it: Test 1b; pre-emergence application; rate 1000 g/ha; evaluated after 13 days; score 0-5. The method, then: as §1
In test [7] the test system is Alopecurus myosuroides (ALOMY). Briefly: Post-emergence herbicidal activity (B2). The settings on record: Test B2b; post-emergence application; rate 1000 g/ha; evaluated after 13 days; score 0-5. The procedure: as §1
The subject of test [8] is Avena fatua (AVEFA). Briefly: Post-emergence herbicidal activity (B2). The settings on record: Test B2b; post-emergence application; rate 1000 g/ha; evaluated after 13 days; score 0-5. The procedure: as §1
Test [9] concerns Echinochloa crus-galli (ECHCG). The test can be described thus: Post-emergence herbicidal activity (B2). The note with it: Test B2b; post-emergence application; rate 1000 g/ha; evaluated after 13 days; score 0-5. The procedure: as §1
For test [10], the system named is Lolium perenne (LOLPE). Briefly: Post-emergence herbicidal activity (B2). The settings on record: Test B2b; post-emergence application; rate 1000 g/ha; evaluated after 13 days; score 0-5. The method, then: as §1
In test [11] the test system is Setaria faberi (SETFA). Briefly: Post-emergence herbicidal activity (B2). The settings on record: Test B2b; post-emergence application; rate 1000 g/ha; evaluated after 13 days; score 0-5. The method, then:
as §1

Test [12] concerns Triticum aestivium (TRZAW). The test can be described thus: Post-emergence herbicidal activity (B2). The note with it: Test B2b; post-emergence application; rate 1000 g/ha; evaluated after 13 days; score 0-5. The method, then: as §1

The structures appear in SMILES notation.

As to `Nc1ncc(-c2cncc(F)c2)nc1Br` [Compound G8, 2-amino-3-bromo-5-(5-fluoropyrid-3-yl)pyrazine], the “damage to plant, ALOMY” value in test [1] and in test [7] was 0 in each case. In addition, the “damage to plant, AVEFA” value in the test on Avena fatua (AVEFA) [2] and in the test on Avena fatua (AVEFA) [8] was 0 each time. Further, the “damage to plant, ECHCG” value in test [3] turned out to be 0; in test [9], 2. The “damage to plant, LOLPE” value with Lolium perenne (LOLPE) [4] and in the test with Lolium perenne (LOLPE) [10] was 0 in each case. Also, the “damage to plant, SETFA” value is 0 in the test with Setaria faberi (SETFA) [5] and 1 in the test with Setaria faberi (SETFA) [11]. The “damage to plant, TRAZW” value in test [6] and in [12] was 0 each time.

With `Nc1ncc(-c2cncnc2)nc1OCc1ccccc1` [Compound G10], the “damage to plant, ALOMY” value in test [1] and in [7] was 0 in each case. Also, the “damage to plant, AVEFA” value with Avena fatua (AVEFA) [2] and in the test on Avena fatua (AVEFA) [8] was 0 throughout. The “damage to plant, ECHCG” value in [3] is on record as 0; in test [9], 1. The “damage to plant, LOLPE” value with Lolium perenne (LOLPE) [4] and in the test with Lolium perenne (LOLPE) [10] was 0 throughout. Besides, the “damage to plant, SETFA” value with Setaria faberi (SETFA) [5] turned out to be 0; in the test on Setaria faberi (SETFA) [11], 1. Besides, the “damage to plant, TRAZW” value in test [6] and in test [12] was 0 each time.

In the case of `Nc1ncc(-c2cncc(F)c2)nc1OCc1ccccc1` [Compound G11], the “damage to plant, ALOMY” value in test [1] and in [7] was 0 throughout. Further, the figures for the “damage to plant, AVEFA” value in the test with Avena fatua (AVEFA) [2] and with Avena fatua (AVEFA) [8] were 0 and 1, respectively. For the same compound, the “damage to plant, ECHCG” value in [3] is reported as 0; in test [9], 1. For the same compound, the “damage to plant, LOLPE” value in the test with Lolium perenne (LOLPE) [4] and in the test on Lolium perenne (LOLPE) [10] was 0 each time. Also, the results for the “damage to plant, SETFA” value with Setaria faberi (SETFA) [5] and in the test on Setaria faberi (SETFA) [11] were 0 and 1, respectively. Further, the “damage to plant, TRAZW” value in [6] and in test [12] was 0 each time.

For the compound `OCNc1ncc(-c2cncc(F)c2)nc1C(F)(F)F` [Compound G12, 2-hydroxymethylamino-3-trifluoromethyl-5-(5-fluoropyrid-3-yl)pyrazine], the “damage to plant, ALOMY” value in test [1] and in test [7] was 0 each time. Further, the “damage to plant, AVEFA” value in the test with Avena fatua (AVEFA) [2] is listed as 1; with Avena fatua (AVEFA) [8], 5. Also, the “damage to plant, ECHCG” value is given as 3 in [3] and 2 in test [9]. For the same compound, the “damage to plant, LOLPE” value with Lolium perenne (LOLPE) [4] and with Lolium perenne (LOLPE) [10] was 0 each time. The “damage to plant, SETFA” value was 5 in the test on Setaria faberi (SETFA) [5] and 3 with Setaria faberi (SETFA) [11]. Moreover, the “damage to plant, TRAZW” value in [6] and in test [12] was 0 in each case.

`Cc1nc(-c2cncc(F)c2)cnc1N(C)C` [Compound G13, 2-dimethylamino-3-methyl-5-(5-fluoropyrid-3-yl)pyrazine]: the “damage to plant, ALOMY” value in test [1] and in test [7] was 0 throughout. Also, the “damage to plant, AVEFA” value with Avena fatua (AVEFA) [2] worked out at 0; in the test with Avena fatua (AVEFA) [8] it was 1. Besides, the “damage to plant, ECHCG” value amounted to 0 in test [3] and 1 in test [9]. For the same compound, the “damage to plant, LOLPE” value in the test with Lolium perenne (LOLPE) [4] and in the test on Lolium perenne (LOLPE) [10] was 0 throughout. The “damage to plant, SETFA” value with Setaria faberi (SETFA) [5] came to 1; with Setaria faberi (SETFA) [11], 3. The “damage to plant, TRAZW” value in test [6] and in [12] was 0 throughout.

Consider `C=C(C)c1nc(-c2cncc(F)c2)cnc1N` [Compound G14, 5-(5-fluoro-3-pyridyl)-3-isopropenyl-pyrazin-2-amine], for which the “damage to plant, ALOMY” value in test [1] and in test [7] was 0 in each case. Moreover, the “damage to plant, AVEFA” value in the test on Avena fatua (AVEFA) [2] turned out to be 0; in the test on Avena fatua (AVEFA) [8], 1. For the same compound, the “damage to plant, ECHCG” value in test [3] and in test [9] was 1 in each case. For the same compound, the results for the “damage to plant, LOLPE” value with Lolium perenne (LOLPE) [4] and in the test with Lolium perenne (LOLPE) [10] were 0 and 1, respectively. Further, the “damage to plant, SETFA” value is given as 2 in the test on Setaria faberi (SETFA) [5] and 4 in the test with Setaria faberi (SETFA) [11]. The “damage to plant, TRAZW” value in test [6] and in test [12] was 0 in each case.

With `CC(C)c1nc(-c2cncc(F)c2)cnc1N` [Compound G15, 2-amino-3-(prop-2-yl)-5-(5-fluoropyrid-3-yl)pyrazine], the “damage to plant, ALOMY” value in test [1] and in test [7] was 0 each time. Moreover, the “damage to plant, AVEFA” value with Avena fatua (AVEFA) [2] and with Avena fatua (AVEFA) [8] was 0 throughout. The “damage to plant, ECHCG” value is reported as 0 in [3] and 1 in [9]. Besides, the results for the “damage to plant, LOLPE” value with Lolium perenne (LOLPE) [4] and in the test with Lolium perenne (LOLPE) [10] were 2 and 0, respectively. The “damage to plant, SETFA” value is recorded as 0 with Setaria faberi (SETFA) [5] and 4 with Setaria faberi (SETFA) [11]. The “damage to plant, TRAZW” value in test [6] and in test [12] was 0 in each case.

Turning to `CNc1ncc(-c2cncc(F)c2)nc1C` [Compound G17, 2-methylamino-3-methyl-5-(5-fluoropyrid-3-yl)pyrazine], the “damage to plant, ALOMY” value in [1] and in [7] was 0 throughout. For the same compound, the “damage to plant, AVEFA” value in the test with Avena fatua (AVEFA) [2] and in the test on Avena fatua (AVEFA) [8] was 0 throughout. For the same compound, the “damage to plant, ECHCG” value came out at 0 in [3] and 1 in test [9]. Also, the “damage to plant, LOLPE” value in the test on Lolium perenne (LOLPE) [4] and in the test with Lolium perenne (LOLPE) [10] was 0 in each case. Moreover, the “damage to plant, SETFA” value in the test with Setaria faberi (SETFA) [5] came to 0; in the test on Setaria faberi (SETFA) [11] it was 1. In addition, the “damage to plant, TRAZW” value in test [6] and in [12] was 0 in each case.

For the compound `C=Cc1nc(-c2cncc(F)c2)cnc1N` [Compound G18], the “damage to plant, ALOMY” value in [1] and in test [7] was 0 each time. Further, the “damage to plant, AVEFA” value is 0 with Avena fatua (AVEFA) [2] and 1 in the test on Avena fatua (AVEFA) [8]. For the same compound, the “damage to plant, ECHCG” value in test [3] is 0; in test [9], 1. Moreover, the “damage to plant, LOLPE” value in the test with Lolium perenne (LOLPE) [4] and in the test on Lolium perenne (LOLPE) [10] was 0 in each case. In addition, the results for the “damage to plant, SETFA” value with Setaria faberi (SETFA) [5] and with Setaria faberi (SETFA) [11] were 0 and 1, respectively. The “damage to plant, TRAZW” value in test [6] and in test [12] was 0 in each case.

With `CCc1nc(-c2cncc(F)c2)cnc1N` [Compound G19], the “damage to plant, ALOMY” value in test [1] and in test [7] was 0 throughout. In addition, the “damage to plant, AVEFA” value with Avena fatua (AVEFA) [2] is recorded as 0; in the test with Avena fatua (AVEFA) [8], 1. The “damage to plant, ECHCG” value in test [3] turned out to be 1; in [9], 2. For the same compound, the results for the “damage to plant, LOLPE” value with Lolium perenne (LOLPE) [4] and in the test on Lolium perenne (LOLPE) [10] were 1 and 0, respectively. In addition, the “damage to plant, SETFA” value in the test with Setaria faberi (SETFA) [5] is 4; in the test with Setaria faberi (SETFA) [11], 3. Also, the “damage to plant, TRAZW” value in test [6] and in test [12] was 0 in each case.

For the compound `C[Si](C)(C)C#Cc1nc(-c2cncc(F)c2)cnc1N` [Compound G20], the “damage to plant, ALOMY” value in test [1] and in test [7] was 0 in each case. Further, the “damage to plant, AVEFA” value is 0 in the test with Avena fatua (AVEFA) [2] and 1 with Avena fatua (AVEFA) [8]. In addition, the “damage to plant, ECHCG” value in [3] and in [9] was 0 throughout. Moreover, the “damage to plant, LOLPE” value in the test with Lolium perenne (LOLPE) [4] and with Lolium perenne (LOLPE) [10] was 0 throughout. The “damage to plant, SETFA” value with Setaria faberi (SETFA) [5] and with Setaria faberi (SETFA) [11] was 0 in each case. The “damage to plant, TRAZW” value in test [6] amounted to 0; in test [12], 1.

Consider `CCCNc1ncc(-c2cncc(F)c2)nc1C(F)(F)F` [Compound G23], for which the entries for the “damage to plant, ALOMY” value in test [1] and in test [7] were 1 and 0, respectively. The entries for the “damage to plant, AVEFA” value with Avena fatua (AVEFA) [2] and in the test with Avena fatua (AVEFA) [8] were 0 and 1, respectively. The “damage to plant, ECHCG” value in test [3] amounted to 2; in test [9] it was 4. For the same compound, the “damage to plant, LOLPE” value with Lolium perenne (LOLPE) [4] and in the test on Lolium perenne (LOLPE) [10] was 1 each time. Also, the “damage to plant, SETFA” value with Setaria faberi (SETFA) [5] stood at 3; with Setaria faberi (SETFA) [11] it was 4. Moreover, the “damage to plant, TRAZW” value in [6] and in test [12] was 0 in each case.

Source of the values: patent US11229205B2, “Herbicidally active pyridyl-/pyrimidyl-pyrazine derivatives” (Syngenta Participations AG, priority 2017, dated 2022).
